The numbers were not newly measured in patent US4925675A (hiMedics, Inc., priority 1988, dated 1990), which cites them from elsewhere.

Like-named read-outs stand apart in the source and are kept apart here.

The term pKa denotes the negative logarithm of the acid dissociation constant.

For data set [1] the following is noted: in vivo.

`CC[C@H]1OC(=O)[C@H](C)[C@@H](O[C@H]2C[C@@](C)(OC)[C@@H](O)[C@H](C)O2)[C@H](C)[C@@H](O[C@@H]2O[C@H](C)C[C@H](N(C)C)[C@H]2O)[C@](C)(O)C[C@@H](C)C(=O)[C@H](C)[C@@H](O)[C@]1(C)O` [Erythromycin]: the pKa is on record as 8.7 and the solubility in water result is on record as “very slightly soluble”. Further, the “solubility in simulated intestinal fluid” value (SIF) is “very soluble”. Moreover, the “solubility in alcohol, chloroform, ether and acetone” value (alcohol, chloroform, ether and acetone) was “freely soluble”. Also, under “amyl acetate and ethylene dichloride”, the “solubility in amyl acetate and ethylene dichloride” value was “moderately soluble”. The solubility in water entry (listed as erythromycin) is listed as “not highly soluble”. The “absorption in small intestine versus stomach” value in data set [1] is recorded as “better absorption characteristics in the small intestine than in the stomach”.
